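The concentration for 50% growth inhibition is given as GI50. TGI is the concentration that stops growth completely.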
What was measured:
Assay in all cases: NCI-60 cell line screen, 384-well format
[1] = test system: OVCAR-8 ovarian
[2] = test system: NCI-H522 lung
[3] = test system: HCT-116 colon
[4] = test system: SK-OV-3 ovarian
[5] = test system: NCI/ADR-RES ovarian
[6] = test system: PC-3 prostate
[7] = test system: CAKI-1 renal
[8] = test system: DU-145 prostate
[9] = test system: MALME-3M melanoma
[10] = test system: TK-10 renal
[11] = test system: OVCAR-3 ovarian
[12] = test system: HOP-92 NSCLC
[13] = test system: NCI-H23 lung
[14] = test system: EKVX NSCLC
[15] = test system: MDA-MB-435 melanoma
[16] = test system: T-47D breast
[17] = test system: SNB-75 CNS
[18] = test system: BT-549 breast
[19] = test system: ACHN renal
[20] = test system: MOLT-4 leukemia
[21] = test system: RPMI-8226 leukemia
[22] = test system: MDA-MB-468 breast
[23] = test system: RXF 393 renal
[24] = test system: HCT-15 colon
[25] = test system: SK-MEL-5 melanoma
[26] = test system: SF-268 CNS
[27] = test system: M14 melanoma
[28] = test system: COLO 205 colon
[29] = test system: UACC-62 melanoma
[30] = test system: SNB-19 CNS
[31] = test system: NCI-H226 lung
[32] = test system: SN12C renal
[33] = test system: IGROV1 ovarian
[34] = test system: HCC-2998 colon
[35] = test system: OVCAR-5 ovarian
[36] = test system: UACC-257 melanoma
[37] = test system: OVCAR-4 ovarian
[38] = test system: LOX IMVI melanoma
[39] = test system: SF-295 CNS
[40] = test system: HS 578T breast
[41] = test system: A549 NSCLC
[42] = test system: KM12 colon
[43] = test system: HT29 colon
[44] = test system: SK-MEL-28 melanoma
[45] = test system: HL-60(TB) leukemia
[46] = test system: MDA-MB-231 breast
[47] = test system: NCI-H460 NSCLC
[48] = test system: HOP-62 NSCLC
[49] = test system: SR leukemia
[50] = test system: MCF7 breast
[51] = test system: SF-539 CNS
[52] = test system: NCI-H322M lung
[53] = test system: A498 renal
[54] = test system: U251 glioblastoma

SMILES: FC(F)(F)c1cc(-c2ncn(/C=C\c3nnco3)n2)cc(C(F)(F)F)c1
- GI50 [1]: < 10 nM
- TGI [1]: 1210 nM
- GI50 [2]: < 10 nM
- TGI [2]: 118 nM
- GI50 [3]: < 10 nM
- TGI [3]: 350 nM
- GI50 [4]: < 10 nM
- TGI [4]: 12500 nM
- GI50 [5]: < 10 nM
- TGI [5]: 1330 nM
- GI50 [6]: < 10 nM
- TGI [6]: 38.1 nM
- GI50 [7]: < 10 nM
- TGI [7]: 18900 nM
- GI50 [8]: 119 nM
- TGI [8]: 514 nM
- GI50 [9]: 123 nM
- TGI [9]: 425 nM
- GI50 [10]: 16.4 nM
- TGI [10]: 143 nM
- GI50 [11]: < 10 nM
- TGI [11]: 96.6 nM
- GI50 [12]: 130 nM
- TGI [12]: 11000 nM
- GI50 [13]: < 10 nM
- TGI [13]: 1950 nM
- GI50 [14]: 184 nM
- TGI [14]: 9920 nM
- GI50 [15]: 20.7 nM
- TGI [15]: 82.5 nM
- GI50 [16]: 190 nM
- TGI [16]: 6280 nM
- GI50 [17]: < 10 nM
- TGI [17]: 113 nM
- GI50 [18]: < 10 nM
- TGI [18]: 23.8 nM
- GI50 [19]: 67.3 nM
- TGI [19]: 8770 nM
- GI50 [20]: < 10 nM
- TGI [20]: < 10 nM
- GI50 [21]: < 10 nM
- TGI [21]: < 10 nM
- GI50 [22]: 154 nM
- TGI [22]: 381 nM
- GI50 [23]: < 10 nM
- TGI [23]: 706 nM
- GI50 [24]: 34.4 nM
- TGI [24]: 493 nM
- GI50 [25]: 73.6 nM
- TGI [25]: 252 nM
- GI50 [26]: < 10 nM
- TGI [26]: 558 nM
- GI50 [27]: 108 nM
- TGI [27]: 348 nM
- GI50 [28]: < 10 nM
- TGI [28]: 1980 nM
- GI50 [29]: 12.5 nM
- TGI [29]: 242 nM
- GI50 [30]: 58.3 nM
- TGI [30]: 1130 nM
- GI50 [31]: < 10 nM
- TGI [31]: 17 nM
- GI50 [32]: 194 nM
- TGI [32]: 1510 nM
- GI50 [33]: 104 nM
- TGI [33]: 2890 nM
- GI50 [34]: 33.5 nM
- TGI [34]: 334 nM
- GI50 [35]: 64.2 nM
- TGI [35]: 588 nM
- GI50 [36]: 239 nM
- TGI [36]: 2470 nM
- GI50 [37]: 179 nM
- TGI [37]: 662 nM
- GI50 [38]: 42.3 nM
- TGI [38]: 206 nM
- GI50 [39]: 16.9 nM
- TGI [39]: 2300 nM
- GI50 [40]: < 10 nM
- TGI [40]: 878 nM
- GI50 [41]: 10.1 nM
- TGI [41]: 11300 nM
- GI50 [42]: 139 nM
- TGI [42]: 3050 nM
- GI50 [43]: < 10 nM
- TGI [43]: 719 nM
- GI50 [44]: 33.8 nM
- TGI [44]: 386 nM
- GI50 [45]: < 10 nM
- TGI [45]: 54.4 nM
- GI50 [46]: < 10 nM
- TGI [46]: 142 nM
- GI50 [47]: < 10 nM
- TGI [47]: 79.5 nM
- GI50 [48]: 31.8 nM
- TGI [48]: 231 nM
- GI50 [49]: < 10 nM
- TGI [49]: < 10 nM
- GI50 [50]: 19.1 nM
- TGI [50]: > 100000 nM
- GI50 [51]: < 10 nM
- TGI [51]: 11.2 nM
- GI50 [52]: 50.6 nM
- TGI [52]: 2580 nM
- GI50 [53]: < 10 nM
- TGI [53]: 82.2 nM
- GI50 [54]: 19.5 nM
- TGI [54]: 190 nM

Reference: PubChem BioAssay (NCI)
